Measured values reported in US20260021055A1, “Asymmetric Piperazine-Based Cationic Lipids” (TRANSLATE BIO, INC., priority 2022, published 2026).

System: hEPO protein produced in the serum
Assay: Delivery of human erythropoietin (hEPO) mRNA by intramuscular administration; hEPO protein in serum by ELISA
Format: in vivo, Mice
Details: for in vivo protein production (hEPO protein) after delivery of hEPO mRNA: lipid nanoparticles comprising the compound, FIG. 1; for effectiveness in delivering hEPO mRNA compared with control cationic lipid: mice, intramuscular, lipid nanoparticles comprising the lipid, FIG. 1 and Table F
Protocol: For the hEPO animal dosing studies, the lipid nanoparticles (LNPs) are diluted to […] in 10% trehalose. Mice are dosed intramuscularly (IM) with 0.1 μg in 30 μL volume into right gastrocnemius muscle on the leg of the mouse. Blood samples are collected 6 hours and 24 hours post injection to measure the amount of hEPO protein produced in the serum. The hEPO protein amounts are detected using an ELISA assay from commercially available kits. Lipid nanoparticle formulations described in Table D above encapsulating hEPO mRNA were prepared by Process A as described above for intramuscular (IM) administration in accordance with the above procedure.

Row | Structure (SMILES) | in vivo protein production (hEPO protein) after delivery of hEPO mRNA | effectiveness in delivering hEPO mRNA compared with control cationic lipid
1 | CCCCCCCC/C=C\CCCCCCC(O)CN(CCCCSSCCCN1CC(C)N(CCOC(=O)CCCN(CC(O)CCCCCCCCCC)CC(O)CCCCCCCCCC)CC1C)CC(O)CCCCCC/C=C\CCCCCCCC (stereo not shown) [Compound B1] | high levels of in vivo protein production | more effective in delivering hEPO mRNA than the control cationic lipid DLin-MC3-DMA
2 | CCCCCCCC/C=C\CCCCCCC(O)CN(CCCCSSCCCCN1CC(C)N(CCOC(=O)CCCN(CC(O)CCCCCCCCCC)CC(O)CCCCCCCCCC)CC1C)CC(O)CCCCCC/C=C\CCCCCCCC (stereo not shown) [Compound C1] | high levels of in vivo protein production | more effective in delivering hEPO mRNA than the control cationic lipid DLin-MC3-DMA
